This passage reports IC50 and EC50 results from ChEMBL document CHEMBL4706677, “Design, synthesis, and biological evaluation of 1,3,6,7-tetrahydroxyxanthone derivatives as phosphoglycerate mutase 1 inhibitors” (Bioorg Med Chem Lett, 2021).

In assay [1] the target is Phosphoglycerate mutase 1 (Homo sapiens, UniProt P18669). As to the kind of experiment: Inhibition of PGAM1 (unknown origin).
The subject of the next assay is NCI-H1299. As to the kind of experiment: Antiproliferative activity against human NCI-H1299 cells assessed as inhibition of cell proliferation. Type of assay: functional, cell-based.

The IC50 is the concentration that gives 50% inhibition. High values mean weaker potency, low ones greater potency. A word on the EC50: it is the concentration at which the effect is half-maximal.

Chain of Phosphoglycerate mutase 1 (P18669 whole entry): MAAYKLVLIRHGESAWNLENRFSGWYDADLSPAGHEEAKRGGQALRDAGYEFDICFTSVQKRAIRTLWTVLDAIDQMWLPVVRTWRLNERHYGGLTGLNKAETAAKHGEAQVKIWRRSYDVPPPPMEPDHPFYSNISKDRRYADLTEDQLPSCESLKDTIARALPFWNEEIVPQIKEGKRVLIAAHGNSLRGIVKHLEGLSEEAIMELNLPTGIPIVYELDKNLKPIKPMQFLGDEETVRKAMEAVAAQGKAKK

Molecule `CC(C)=CCc1c(O)cc2oc3cc(O)c(O)c(CC=C(C)C)c3c(=O)c2c1O` registered an IC50 in assay [1] of 1.9 µM. For the same molecule, the EC50 in the assay with NCI-H1299 stood at 2.2 µM. For the molecule `O=C1c2ccccc2C(=O)c2c1cc(S(=O)(=O)Nc1ccc(C(F)(F)F)cc1)c(O)c2O`, the EC50 in the assay with NCI-H1299 amounted to 26.2 µM. `O=c1c2cc(O)c(O)cc2oc2cc(O)cc(OCCCCN3CCCCC3)c12`: the IC50 in assay [1] is greater than 20 µM. The molecule `CCCCC=CCc1c(O)c(O)cc2oc3cc(O)cc(O)c3c(=O)c12` registered an IC50 in assay [1] of 2.8 µM. The EC50 in the assay on NCI-H1299 was found to be 13.5 µM. For the molecule `COc1c(OCCN2CCN(C)CC2)cc2oc3cc(OCCN4CCN(C)CC4)c(CC=C(C)C)c(O)c3c(=O)c2c1CC=C(C)C`, the IC50 in assay [1] was greater than 20 µM. Still for that read-out and setting: the value for `CCNC(=O)Oc1cc2oc3cc(OC(=O)NCC)c(OC)c(CC=C(C)C)c3c(=O)c2c(O)c1CC=C(C)C` was greater than 20 µM; that for `COc1c(OC(=O)NC(C)C)cc2oc3cc(OC(=O)NC(C)C)c(CC=C(C)C)c(O)c3c(=O)c2c1CC=C(C)C` was greater than 20 µM. Same read-out and setting: the value for `COc1c(OCCN(C)C)cc2oc3cc(OCCN(C)C)c(CC=C(C)C)c(O)c3c(=O)c2c1CC=C(C)C` was greater than 20 µM. On the same count and under the same terms, the value for `O=C(CCCOc1cc(O)cc2oc3cc(O)c(O)cc3c(=O)c12)N1CCCCC1` was greater than 20 µM.

For the molecule `CCCCCCCCOc1cc(O)cc2oc3cc(O)c(O)cc3c(=O)c12`, the IC50 in assay [1] was found to be 2.8 µM. Moreover, the EC50 in the assay on NCI-H1299 is 3.4 µM. The corresponding values for `O=c1c2c(O)cc(O)cc2oc2cc(O)c(O)c(CCCc3ccccc3)c12` are 1.5 µM and 41.6 µM. In assay [1], `COc1c(OCCO)cc2oc3cc(OCCO)c(CC=C(C)C)c(O)c3c(=O)c2c1CC=C(C)C` yielded an IC50 greater than 20 µM. Same read-out and setting: the value for `COc1cc(O)c2c(=O)c3c(CCCc4ccccc4)c(O)c(OC)cc3oc2c1` was greater than 20 µM. With `CCCCOc1cc(O)cc2oc3cc(O)c(O)cc3c(=O)c12`, it took 12.8 µM to reach half-maximal inhibition in assay [1] (IC50). In the assay on NCI-H1299, the EC50 is 60 µM.

The molecule `CCCc1c(O)c(O)cc2oc3cc(O)cc(O)c3c(=O)c12` returned an IC50 in assay [1] of 20 µM. That is a double-digit micromolar value. Molecule `O=c1c2cc(O)c(O)cc2oc2cc(O)cc(OCCCCN3CCc4ccccc43)c12` returned an IC50 in assay [1] of 5.7 µM. For the same molecule, the EC50 with NCI-H1299 came to 28.1 µM. Molecule `COc1c(OCC(=O)N(C)C)cc2oc3cc(OCC(=O)N(C)C)c(CC=C(C)C)c(O)c3c(=O)c2c1CC=C(C)C` yielded an IC50 in assay [1] greater than 20 µM. Take `CC(C)=CCc1c(O)c(O)cc2oc3cc(O)cc(O)c3c(=O)c12`: the IC50 in assay [1] was 3.4 µM. Further, the EC50 with NCI-H1299 amounted to 47.7 µM. In assay [1], `COc1c(O)cc2oc3cc(O)c(CC=C(C)C)c(O)c3c(=O)c2c1CC=C(C)C` [MANGOSTIN] came in with an IC50 of 7.2 µM. The same measure, in the same setting: the value for `O=c1c2ccccc2oc2ccccc12` [XANTHONE] was 0.5 µM.
